Entries after “also recorded” stand apart in the source; their conditions may differ.
Tests used:
CD8^+ T cells = assay type: cell-based, C57BL/6 mice
EL4 cells = assay: Immunization with TSA-pulsed DCs followed by live EL4 cell challenge and rechallenge; assay type: in vivo, C57BL/6 mice; conditions: for mice with prolonged survival after priming / day-150 survival rate: immunized twice with TSA-pulsed DCs, 5×10^5 live EL4 cells i.v. day 0; for outcome of rechallenge with live EL4 cells at day 150: surviving immunized mice rechallenged at day 150
Method: Generation of bone marrow-derived dendritic cells (DCs), mouse immunization and EL4 cell injection. Bone marrow—derived DCs were generated as previously described^13a,14a. For mouse immunization, DCs from male C57BL/6 mice were pulsed with 2 μM of the selected peptide for 3 hours, then washed. 8- to 12-week old female C57BL/6 mice were injected i.v. with 10^6 individually peptide-pulsed DCs at day −14 and −7, or with irradiated EL4 cells (10,000 cGy). As negative control, C57BL/6 female mice were immunized with unpulsed DCs. At day 0 and day 150, mice were injected i.v. with 5×10^5 EL4 cells and were monitored for weight loss, paralysis, or tumor outgrowth.

[1] = literature references 9, 37; cited from earlier work

Sequence	frequency of antigen-specific CD8 T cells in naive mice (CD8^+ T cells)	day-150 survival rate (EL4 cells)	outcome of rechallenge with live EL4 cells at day 150 (EL4 cells)	further results
HGIRNASFI (listed as Murine cytomegalovirus) [M45, H-2db, reference compound]	within range of those observed in previous studies	–	–	–
IILEFHSL (listed as Mus musculus) [EL4 TSA]	less than one	–	–	mice with prolonged survival after priming (EL4 cells): 10%
KAVYNFATC [gp-33, reference compound]	within range of those observed in previous studies	–	–	–
SPSYVYHQF (listed as Mus musculus) [AH1 peptide, aeTSA previously identified on CT26 cells]	–	–	–	antitumor responses and adverse effects [1]: elicits strong antitumor responses devoid of adverse effects
TSYKFESV [B8R, reference compound]	within range of those observed in previous studies	–	–	–
TVPLNHNTL (listed as Mus musculus) [EL4 TSA]	less than one	surviving up day 150	survived the rechallenge	mice with prolonged survival after priming (EL4 cells): 10%
VNYIHRNV (VNYXHRNV; VARIANT (4)..(4) Xaa is Ile or Leu; listed as Mus musculus)	frequencies similar to those of the viral controls	20%	not sufficient to protect mice upon rechallenge; also recorded: no significant protection upon rechallenge	tetramer^+ CD8 T cells in long-term survivors after rechallenge (CD8^+ T cells): large population of tetramer^+ cells; time to death from leukemia after rechallenge (EL4 cells; surviving immunized mice rechallenged with EL4 cells at day 150): ≤ 50 days
VNYLHRNV (VNYXHRNV; VARIANT (4)..(4) Xaa is Ile or Leu; listed as Mus musculus)	frequencies similar to those of the viral controls	100%	survived the rechallenge	rank of protection against EL4 challenge (EL4 cells; immunization with TSA-pulsed DCs): best protection

Reference: patent publication US11702450B2, “Proteogenomic-based method for identifying tumor-specific antigens” (UNIVERSITÉ DE MONTRÉAL, priority 2018, dated 2023)
